Like-named read-outs stand apart in the source and are kept apart here.
How the values were obtained:
[1] = biological target: BTK, full length (2–659) (Homo sapiens, UniProt Q06187); assay: PhosphoSens enzymatic IC50 (AssayQuant); format: biochemical; conditions: for IC50: 1 nM BTK, 1.0 mM ATP; for fold change, 1 nM BTK: IC50 0 min vs 60 min preincubation
Text: (§1) Biochemical enzymatic IC50 data were generated by AssayQuant Technologies (Marlborough, MA) using the PhosphoSens Platform. […] Reaction rate versus log [inhibitor concentration] data were fitted to the four-parameter logistic equation [drawing 1]

[2] = biological target: T1, EGFR, cytoplasmic domain (669–1210) (Homo sapiens, UniProt P00533); assay: PhosphoSens enzymatic IC50 (AssayQuant); format: biochemical; conditions: no preincubation
T1 construct: GST (N); purchased Carna Biosciences
Text: as §1

[3] = biological target: T2, ABL1(T315I)-phosphorylated (Homo sapiens, UniProt P00519, T315I); assay: KINOMEscan ScanTK; format: binding
T2 construct: purchased Eurofins DiscoverX KINOMEscan (scanTK)

[4] = biological target: T3, EGFR(L858R,T790M) (Homo sapiens, UniProt P00533, L858R/T790M); assay: KINOMEscan ScanTK; format: binding
T3 construct: purchased Eurofins DiscoverX KINOMEscan (scanTK)

[5] = biological target: T4, EPHA1 (Homo sapiens, UniProt P21709); assay: KINOMEscan ScanTK; format: binding
T4 construct: purchased Eurofins DiscoverX KINOMEscan (scanTK)
T4 sequence (P21709 26-976): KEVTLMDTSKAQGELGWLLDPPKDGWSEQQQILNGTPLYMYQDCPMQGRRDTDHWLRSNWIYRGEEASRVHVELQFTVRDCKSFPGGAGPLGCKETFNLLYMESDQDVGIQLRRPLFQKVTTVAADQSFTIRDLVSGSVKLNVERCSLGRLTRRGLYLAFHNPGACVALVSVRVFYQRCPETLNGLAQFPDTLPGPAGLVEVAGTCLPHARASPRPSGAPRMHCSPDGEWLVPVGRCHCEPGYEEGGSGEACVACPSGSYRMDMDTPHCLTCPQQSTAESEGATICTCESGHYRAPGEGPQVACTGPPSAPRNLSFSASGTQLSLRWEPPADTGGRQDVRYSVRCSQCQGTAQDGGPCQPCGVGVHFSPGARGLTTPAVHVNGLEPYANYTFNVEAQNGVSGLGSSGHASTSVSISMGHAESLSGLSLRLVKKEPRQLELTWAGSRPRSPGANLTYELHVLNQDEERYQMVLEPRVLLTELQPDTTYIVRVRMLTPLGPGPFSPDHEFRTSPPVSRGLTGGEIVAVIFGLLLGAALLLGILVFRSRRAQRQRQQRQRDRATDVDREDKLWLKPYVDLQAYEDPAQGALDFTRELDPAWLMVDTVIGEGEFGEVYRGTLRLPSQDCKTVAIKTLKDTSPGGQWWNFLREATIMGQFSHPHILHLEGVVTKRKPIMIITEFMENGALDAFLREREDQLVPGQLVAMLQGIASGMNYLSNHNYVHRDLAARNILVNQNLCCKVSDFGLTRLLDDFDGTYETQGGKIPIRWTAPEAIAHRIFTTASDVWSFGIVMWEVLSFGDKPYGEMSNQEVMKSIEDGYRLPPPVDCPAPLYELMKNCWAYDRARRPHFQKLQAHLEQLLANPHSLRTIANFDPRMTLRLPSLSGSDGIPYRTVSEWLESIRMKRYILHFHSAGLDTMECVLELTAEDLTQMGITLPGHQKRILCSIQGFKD

[6] = biological target: T5, EPHA4 (Homo sapiens, UniProt P54764); assay: KINOMEscan ScanTK; format: binding
T5 construct: purchased Eurofins DiscoverX KINOMEscan (scanTK)

[7] = biological target: T6, EPHA7 (Homo sapiens, UniProt Q15375); assay: KINOMEscan ScanTK; format: binding
T6 construct: purchased Eurofins DiscoverX KINOMEscan (scanTK)

[8] = biological target: T7, ERBB2 (Homo sapiens, UniProt P04626); assay: KINOMEscan ScanTK; format: binding; conditions: ERBB2
T7 construct: purchased Eurofins DiscoverX KINOMEscan (scanTK)

[9] = biological target: T8, FAK (Homo sapiens, UniProt Q05397); assay: KINOMEscan ScanTK; format: binding
T8 construct: purchased Eurofins DiscoverX KINOMEscan (scanTK)

[10] = biological target: T9, INSR (Homo sapiens, UniProt P06213); assay: KINOMEscan ScanTK; format: binding
T9 construct: purchased Eurofins DiscoverX KINOMEscan (scanTK)

[11] = biological target: T10, JAK1(JH2domain-pseudokinase) (Homo sapiens, UniProt P23458); assay: KINOMEscan ScanTK; format: binding
T10 construct: JAK1(JH2domain-pseudokinase); purchased Eurofins DiscoverX KINOMEscan (scanTK)

[12] = biological target: T11, SRC (Homo sapiens, UniProt P12931); assay: KINOMEscan ScanTK; format: binding
T11 construct: purchased Eurofins DiscoverX KINOMEscan (scanTK)

[13] = biological target: T12, SRMS (Homo sapiens, UniProt Q9H3Y6); assay: KINOMEscan ScanTK; format: binding; conditions: SRMS
T12 construct: purchased Eurofins DiscoverX KINOMEscan (scanTK)

[14] = biological target: T13, ITK, full length (Homo sapiens, UniProt Q08881); assay: PhosphoSens enzymatic IC50 (AssayQuant)
T13 sequence (Q08881 1-620): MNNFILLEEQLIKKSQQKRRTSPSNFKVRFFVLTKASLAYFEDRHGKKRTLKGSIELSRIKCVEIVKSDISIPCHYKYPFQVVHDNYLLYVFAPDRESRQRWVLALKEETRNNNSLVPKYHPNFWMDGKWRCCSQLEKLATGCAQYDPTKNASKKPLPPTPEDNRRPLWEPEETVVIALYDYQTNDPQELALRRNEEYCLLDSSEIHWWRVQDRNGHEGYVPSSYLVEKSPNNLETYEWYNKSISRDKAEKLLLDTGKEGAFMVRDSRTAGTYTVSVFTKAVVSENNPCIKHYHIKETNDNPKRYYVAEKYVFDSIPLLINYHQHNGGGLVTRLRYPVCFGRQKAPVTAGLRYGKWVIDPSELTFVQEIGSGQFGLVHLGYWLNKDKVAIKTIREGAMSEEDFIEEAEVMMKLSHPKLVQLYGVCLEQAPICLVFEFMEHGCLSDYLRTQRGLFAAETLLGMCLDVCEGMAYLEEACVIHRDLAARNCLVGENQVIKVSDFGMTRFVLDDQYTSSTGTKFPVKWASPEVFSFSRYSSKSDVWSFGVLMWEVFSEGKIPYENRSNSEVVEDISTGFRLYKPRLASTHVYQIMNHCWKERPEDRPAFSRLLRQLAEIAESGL

[15] = 0 min preincubation IC50 (nM), 0 min preincubation
[16] = 60 min preincubation IC50 (nM), 60 min preincubation

T3 sequence (P00533 25-1210 T790M/L858R): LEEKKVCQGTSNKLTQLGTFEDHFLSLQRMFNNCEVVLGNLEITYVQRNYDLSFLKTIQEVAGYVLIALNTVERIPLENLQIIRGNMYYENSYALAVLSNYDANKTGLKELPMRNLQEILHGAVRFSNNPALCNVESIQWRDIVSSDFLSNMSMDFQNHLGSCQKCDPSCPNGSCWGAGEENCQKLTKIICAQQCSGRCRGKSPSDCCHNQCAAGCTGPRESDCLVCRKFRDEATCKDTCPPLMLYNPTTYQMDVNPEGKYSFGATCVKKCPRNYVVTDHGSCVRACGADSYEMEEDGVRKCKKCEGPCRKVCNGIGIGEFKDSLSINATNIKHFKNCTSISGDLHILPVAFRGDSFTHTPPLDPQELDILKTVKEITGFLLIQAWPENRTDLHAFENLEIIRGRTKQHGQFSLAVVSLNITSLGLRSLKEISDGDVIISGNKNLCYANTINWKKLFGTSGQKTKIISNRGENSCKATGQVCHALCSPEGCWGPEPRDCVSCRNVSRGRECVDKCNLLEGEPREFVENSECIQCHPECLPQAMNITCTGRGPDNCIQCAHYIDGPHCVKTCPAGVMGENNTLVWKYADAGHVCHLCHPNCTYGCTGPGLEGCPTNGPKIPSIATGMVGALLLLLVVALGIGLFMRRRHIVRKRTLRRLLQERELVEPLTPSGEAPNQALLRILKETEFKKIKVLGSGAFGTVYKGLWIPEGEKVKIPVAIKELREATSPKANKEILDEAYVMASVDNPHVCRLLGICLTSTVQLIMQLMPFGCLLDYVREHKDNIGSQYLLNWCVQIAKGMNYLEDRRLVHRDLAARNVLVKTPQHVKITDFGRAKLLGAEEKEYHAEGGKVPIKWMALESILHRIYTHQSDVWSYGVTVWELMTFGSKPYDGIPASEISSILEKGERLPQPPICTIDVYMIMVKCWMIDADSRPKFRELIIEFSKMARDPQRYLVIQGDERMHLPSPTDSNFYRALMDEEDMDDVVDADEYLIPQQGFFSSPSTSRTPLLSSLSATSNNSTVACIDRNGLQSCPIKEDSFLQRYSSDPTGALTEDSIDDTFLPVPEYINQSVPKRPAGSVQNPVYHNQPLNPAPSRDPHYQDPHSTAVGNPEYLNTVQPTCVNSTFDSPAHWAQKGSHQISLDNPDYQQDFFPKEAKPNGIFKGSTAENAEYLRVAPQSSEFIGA
T8 sequence (Q05397 whole entry): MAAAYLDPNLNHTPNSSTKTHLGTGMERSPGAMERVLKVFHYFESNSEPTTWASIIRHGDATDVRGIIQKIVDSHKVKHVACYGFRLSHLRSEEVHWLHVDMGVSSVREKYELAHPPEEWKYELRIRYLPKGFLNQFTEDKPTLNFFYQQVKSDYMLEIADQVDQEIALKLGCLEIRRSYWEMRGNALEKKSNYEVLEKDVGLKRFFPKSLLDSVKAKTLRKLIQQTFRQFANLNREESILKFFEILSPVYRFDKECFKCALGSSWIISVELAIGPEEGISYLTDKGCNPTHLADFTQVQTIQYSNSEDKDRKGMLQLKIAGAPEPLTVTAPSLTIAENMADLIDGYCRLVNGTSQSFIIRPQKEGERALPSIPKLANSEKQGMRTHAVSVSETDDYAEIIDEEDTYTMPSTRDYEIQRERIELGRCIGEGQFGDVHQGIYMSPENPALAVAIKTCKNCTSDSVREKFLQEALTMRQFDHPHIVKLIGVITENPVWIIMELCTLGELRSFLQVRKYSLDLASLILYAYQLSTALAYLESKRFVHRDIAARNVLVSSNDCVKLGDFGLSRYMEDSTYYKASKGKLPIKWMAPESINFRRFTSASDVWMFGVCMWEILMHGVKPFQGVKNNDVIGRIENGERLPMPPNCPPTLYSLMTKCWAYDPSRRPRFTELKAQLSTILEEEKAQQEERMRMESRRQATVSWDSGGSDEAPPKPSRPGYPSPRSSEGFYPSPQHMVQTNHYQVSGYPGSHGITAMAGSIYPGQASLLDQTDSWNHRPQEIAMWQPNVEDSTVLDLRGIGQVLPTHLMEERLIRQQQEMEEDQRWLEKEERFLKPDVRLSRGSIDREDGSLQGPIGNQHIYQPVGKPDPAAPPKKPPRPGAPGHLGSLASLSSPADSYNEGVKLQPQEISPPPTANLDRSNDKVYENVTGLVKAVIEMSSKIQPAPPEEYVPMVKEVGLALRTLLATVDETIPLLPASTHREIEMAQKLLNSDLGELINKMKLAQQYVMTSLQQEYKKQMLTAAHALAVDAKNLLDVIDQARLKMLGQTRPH
T9 sequence (P06213 28-1382): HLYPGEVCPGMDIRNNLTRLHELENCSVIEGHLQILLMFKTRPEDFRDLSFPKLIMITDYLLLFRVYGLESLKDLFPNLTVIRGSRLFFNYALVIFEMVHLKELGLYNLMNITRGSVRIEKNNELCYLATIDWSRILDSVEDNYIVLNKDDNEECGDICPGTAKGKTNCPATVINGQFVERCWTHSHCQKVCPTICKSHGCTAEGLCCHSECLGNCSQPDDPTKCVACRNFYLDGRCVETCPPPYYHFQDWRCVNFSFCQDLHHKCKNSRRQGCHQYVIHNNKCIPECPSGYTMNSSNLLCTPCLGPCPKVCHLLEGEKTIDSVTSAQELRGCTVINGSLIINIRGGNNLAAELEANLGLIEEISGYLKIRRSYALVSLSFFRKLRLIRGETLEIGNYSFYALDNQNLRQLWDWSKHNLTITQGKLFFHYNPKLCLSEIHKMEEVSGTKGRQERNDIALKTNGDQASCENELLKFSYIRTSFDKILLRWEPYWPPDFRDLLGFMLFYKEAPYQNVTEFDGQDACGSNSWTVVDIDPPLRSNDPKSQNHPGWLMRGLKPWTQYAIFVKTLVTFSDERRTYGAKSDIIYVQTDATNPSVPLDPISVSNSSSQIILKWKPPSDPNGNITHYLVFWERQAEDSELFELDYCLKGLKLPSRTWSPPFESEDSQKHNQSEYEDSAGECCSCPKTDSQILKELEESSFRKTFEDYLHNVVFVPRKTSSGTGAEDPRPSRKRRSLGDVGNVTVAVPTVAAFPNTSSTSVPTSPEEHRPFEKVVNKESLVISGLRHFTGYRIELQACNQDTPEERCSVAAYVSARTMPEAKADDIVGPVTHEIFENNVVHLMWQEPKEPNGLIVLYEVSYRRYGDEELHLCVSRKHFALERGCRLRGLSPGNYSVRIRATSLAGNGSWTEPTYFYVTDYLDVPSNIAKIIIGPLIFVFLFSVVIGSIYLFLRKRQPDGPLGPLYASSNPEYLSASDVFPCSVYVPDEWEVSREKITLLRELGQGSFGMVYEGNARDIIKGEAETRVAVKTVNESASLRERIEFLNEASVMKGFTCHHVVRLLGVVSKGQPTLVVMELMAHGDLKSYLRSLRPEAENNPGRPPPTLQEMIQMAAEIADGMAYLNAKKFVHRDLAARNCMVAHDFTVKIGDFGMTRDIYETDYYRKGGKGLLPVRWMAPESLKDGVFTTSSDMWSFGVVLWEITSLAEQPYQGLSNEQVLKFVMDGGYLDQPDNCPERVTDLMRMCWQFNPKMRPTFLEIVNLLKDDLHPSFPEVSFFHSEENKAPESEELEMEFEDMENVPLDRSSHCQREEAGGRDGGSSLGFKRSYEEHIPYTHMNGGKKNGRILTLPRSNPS
T5 sequence (P54764 20-986): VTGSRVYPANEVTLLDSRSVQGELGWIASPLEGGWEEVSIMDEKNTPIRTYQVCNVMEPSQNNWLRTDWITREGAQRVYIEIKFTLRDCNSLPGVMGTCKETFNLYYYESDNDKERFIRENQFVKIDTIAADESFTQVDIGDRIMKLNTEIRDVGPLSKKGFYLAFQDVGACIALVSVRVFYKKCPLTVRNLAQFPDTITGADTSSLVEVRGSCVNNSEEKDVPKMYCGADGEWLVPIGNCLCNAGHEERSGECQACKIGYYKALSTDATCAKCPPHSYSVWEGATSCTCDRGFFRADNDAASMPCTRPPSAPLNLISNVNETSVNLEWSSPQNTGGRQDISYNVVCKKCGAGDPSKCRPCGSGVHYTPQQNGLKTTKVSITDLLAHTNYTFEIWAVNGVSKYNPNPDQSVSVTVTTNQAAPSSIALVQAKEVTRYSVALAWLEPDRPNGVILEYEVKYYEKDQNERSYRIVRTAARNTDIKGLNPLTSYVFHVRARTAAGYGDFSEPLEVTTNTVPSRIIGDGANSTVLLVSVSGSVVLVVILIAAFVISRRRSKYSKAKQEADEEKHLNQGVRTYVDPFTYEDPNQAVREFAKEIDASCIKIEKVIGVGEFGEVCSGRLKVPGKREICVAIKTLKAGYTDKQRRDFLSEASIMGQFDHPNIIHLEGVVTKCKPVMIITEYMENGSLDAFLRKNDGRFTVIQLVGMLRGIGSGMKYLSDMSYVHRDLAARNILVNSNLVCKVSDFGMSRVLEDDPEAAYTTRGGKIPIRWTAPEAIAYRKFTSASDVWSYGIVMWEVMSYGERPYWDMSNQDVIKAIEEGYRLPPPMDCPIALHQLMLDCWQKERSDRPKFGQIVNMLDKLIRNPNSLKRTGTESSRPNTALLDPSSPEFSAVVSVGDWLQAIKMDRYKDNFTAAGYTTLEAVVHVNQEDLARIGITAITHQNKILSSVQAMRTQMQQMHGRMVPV
T1 sequence (P00533 669-1210): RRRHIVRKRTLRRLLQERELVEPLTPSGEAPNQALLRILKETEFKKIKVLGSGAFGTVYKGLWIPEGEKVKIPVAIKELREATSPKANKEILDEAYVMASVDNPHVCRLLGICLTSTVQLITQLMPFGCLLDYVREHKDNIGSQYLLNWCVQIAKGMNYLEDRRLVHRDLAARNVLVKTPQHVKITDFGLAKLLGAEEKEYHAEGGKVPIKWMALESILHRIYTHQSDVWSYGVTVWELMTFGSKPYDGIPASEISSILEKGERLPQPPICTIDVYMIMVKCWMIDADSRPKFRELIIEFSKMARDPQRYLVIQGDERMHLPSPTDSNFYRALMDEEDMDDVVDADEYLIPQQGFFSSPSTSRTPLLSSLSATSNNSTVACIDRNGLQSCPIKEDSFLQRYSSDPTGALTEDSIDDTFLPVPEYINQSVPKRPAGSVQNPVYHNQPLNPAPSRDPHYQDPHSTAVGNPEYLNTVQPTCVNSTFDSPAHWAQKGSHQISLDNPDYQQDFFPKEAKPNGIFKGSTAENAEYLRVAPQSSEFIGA

Row | SMILES | IC50 [1, 15] [nM] | IC50 [1, 16] [nM] | fold change, 1 nM BTK [1] | 0 min IC50 (nM), 3 nM EGFR [2] | IC50 [2] [nM] | difference in %Control versus compound Ib at 1 µM ([3]; @1000nM) [%] | remaining binding at 1 µM ([3]; @1000nM, read-out: %Control) [%] | remaining binding at 1 µM ([3]; read-out: %Control @1000nM) [%] | difference in % of control versus compound Ib at 1 µM ([4]; @1000nM) [%] | remaining binding at 1 µM ([4]; @1000nM, read-out: %Control) [%] | remaining binding at 1 µM ([4]; read-out: %Control @1000nM) [%] | difference in %Control versus compound Ib at 1 µM ([5]; @1000nM) [%] | remaining binding at 1 µM ([5]; @1000nM, read-out: %Control) [%] | remaining binding at 1 µM ([5]; read-out: %Control @1000nM) [%] | %Control difference from compound Ib at 1 µM ([6]; @1000nM) [%] | remaining binding at 1 µM ([6]; @1000nM, read-out: %Control) [%] | remaining binding at 1 µM ([6]; read-out: %Control @1000nM) [%] | difference in %Control versus compound Ib at 1 µM ([7]; @1000nM) [%] | remaining binding at 1 µM ([7]; @1000nM, read-out: %Control) [%] | remaining binding at 1 µM ([7]; read-out: %Control @1000nM) [%] | other results
1 | Cc1cnc(S(C)(=O)=O)nc1N1CCCC(n2nc(-c3ccc(Oc4ccccc4)cc3)c3c(N)ncnc32)C1 (centres unmarked) [Compound 8a, 1-(1-(5-Methyl-2-(methylsulfonyl)pyrimidin-4-yl)piperidin-3-yl)-3-(4-phenoxyphenyl)-1H-pyrazolo[3,4-d]pyrimidin-4-amine] | 6 | 0.31 | 19.6 | none of the compounds, 8a, 8b, or 8d, exhibited measurable inhibition | > 1000 | -9 | 70 | 70 | 81 | 91 | 91 | 9 | 81 | 81 | 9 | 100 | 100 | 2 | 97 | 97 | difference in %Control versus compound Ib at 1 µM ([8]; @1000nM): 53%; remaining binding at 1 µM ([8]; @1000nM, read-out: %Control): 53%; remaining binding at 1 µM ([8]; read-out: %Control @1000nM): 53%; difference in %Control versus compound Ib at 1 µM ([9]; @1000nM): -1%; remaining binding at 1 µM ([9]; @1000nM, read-out: %Control): 99%; remaining binding at 1 µM ([9]; read-out: %Control @1000nM): 99%; difference in %Control versus compound Ib at 1 µM ([10]; @1000nM): -5%; remaining binding at 1 µM ([10]; @1000nM, read-out: %Control): 95%; remaining binding at 1 µM ([10]; read-out: %Control @1000nM): 95%; %Control difference versus compound Ib at 1 µM ([11]; @1000nM): 5%; remaining binding at 1 µM ([11]; @1000nM, read-out: %Control): 100%; remaining binding at 1 µM ([11]; read-out: %Control @1000nM): 100%; remaining binding at 1 µM ([12]; @1000nM, read-out: %Control): 17%; remaining binding at 1 µM ([12]; read-out: %Control @1000nM): 17%; remaining binding at 1 µM ([13]; @1000nM, read-out: %Control): 16%; remaining binding at 1 µM ([13]; read-out: %Control @1000nM): 16%; IC50 [14]: > 1000 nM
2 | COC(=O)c1cnc(S(C)(=O)=O)nc1N1CCCC(n2nc(-c3ccc(Oc4ccccc4)cc3)c3c(N)ncnc32)C1 (centres unmarked) [Compound 8b, Methyl 4-(3-(4-Amino-3-(4-phenoxyphenyl)-1H-pyrazolo[3,4-d]pyrimidin-1-yl)piperidin-1-yl)-2-(methylsulfonyl)pyrimidine-5-carboxylate] | 79 | 6.3 | 12.5 | none of the compounds, 8a, 8b, or 8d, exhibited measurable inhibition | > 1000 | -11 | 68 | 68 | 69 | 79 | 79 | -16 | 56 | 56 | 7 | 98 | 98 | -2 | 93 | 93 | difference in %Control versus compound Ib at 1 µM ([8]; @1000nM): 41%; remaining binding at 1 µM ([8]; @1000nM, read-out: %Control): 41%; remaining binding at 1 µM ([8]; read-out: %Control @1000nM): 41%; difference in %Control versus compound Ib at 1 µM ([9]; @1000nM): 0%; remaining binding at 1 µM ([9]; @1000nM, read-out: %Control): 100%; remaining binding at 1 µM ([9]; read-out: %Control @1000nM): 100%; difference in %Control versus compound Ib at 1 µM ([10]; @1000nM): -5%; remaining binding at 1 µM ([10]; @1000nM, read-out: %Control): 95%; remaining binding at 1 µM ([10]; read-out: %Control @1000nM): 95%; %Control difference versus compound Ib at 1 µM ([11]; @1000nM): 4%; remaining binding at 1 µM ([11]; @1000nM, read-out: %Control): 99%; remaining binding at 1 µM ([11]; read-out: %Control @1000nM): 99%; remaining binding at 1 µM ([12]; @1000nM, read-out: %Control): 60%; remaining binding at 1 µM ([12]; read-out: %Control @1000nM): 60%; remaining binding at 1 µM ([13]; @1000nM, read-out: %Control): 27%; remaining binding at 1 µM ([13]; read-out: %Control @1000nM): 27%; IC50 [14]: > 1000 nM

From paper PMC11345841, “Exploring 2-Sulfonylpyrimidine Warheads as Acrylamide Surrogates for Targeted Covalent Inhibition: A BTK Story” (Journal of Medicinal Chemistry, 2024)
